The values below come from article PMC4595607, “mRNA export through an additional cap-binding complex consisting of NCBP1 and NCBP3” (Nature Communications, 2015).

Numbering of substitutions follows the chain as printed.

For series [1], the target named is T1, NCBP3 (aa 1-282); C17orf85 (Homo sapiens, UniProt Q53F19, W155A/D157A/D158A).
T1 construct: N-terminal fragment 1-282 with core RRM; expressed in E. coli BL21-AI, purified; untagged for MST and CD (MBP/His construct cloned)
T1 sequence (Q53F19 1-282 W155A/D157A/D158A): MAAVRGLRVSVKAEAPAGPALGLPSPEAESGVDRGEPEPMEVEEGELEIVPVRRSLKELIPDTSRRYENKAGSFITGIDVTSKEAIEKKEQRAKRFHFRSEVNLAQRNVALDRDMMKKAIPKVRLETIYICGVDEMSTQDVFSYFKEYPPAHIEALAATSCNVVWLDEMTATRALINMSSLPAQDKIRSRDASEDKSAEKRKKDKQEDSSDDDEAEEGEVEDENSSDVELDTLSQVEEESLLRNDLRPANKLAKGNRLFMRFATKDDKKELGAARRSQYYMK
Description: affinity purification on m7GTP-agarose, Coomassie SDS-PAGE. Format: binding. The following applies: compound immobilised as γ-aminohexyl m7GTP-agarose; WLDD motif mutant (ALAA).

For series [2], the target named is T2, recombinant NCBP3 from E. coli lysates (Homo sapiens, UniProt Q53F19).
T2 construct: full-length, N-terminal His tag (pETG10A-NCBP3; MBP/His version also made), E. coli BL21-AI lysate
T2 sequence (Q53F19 1-620): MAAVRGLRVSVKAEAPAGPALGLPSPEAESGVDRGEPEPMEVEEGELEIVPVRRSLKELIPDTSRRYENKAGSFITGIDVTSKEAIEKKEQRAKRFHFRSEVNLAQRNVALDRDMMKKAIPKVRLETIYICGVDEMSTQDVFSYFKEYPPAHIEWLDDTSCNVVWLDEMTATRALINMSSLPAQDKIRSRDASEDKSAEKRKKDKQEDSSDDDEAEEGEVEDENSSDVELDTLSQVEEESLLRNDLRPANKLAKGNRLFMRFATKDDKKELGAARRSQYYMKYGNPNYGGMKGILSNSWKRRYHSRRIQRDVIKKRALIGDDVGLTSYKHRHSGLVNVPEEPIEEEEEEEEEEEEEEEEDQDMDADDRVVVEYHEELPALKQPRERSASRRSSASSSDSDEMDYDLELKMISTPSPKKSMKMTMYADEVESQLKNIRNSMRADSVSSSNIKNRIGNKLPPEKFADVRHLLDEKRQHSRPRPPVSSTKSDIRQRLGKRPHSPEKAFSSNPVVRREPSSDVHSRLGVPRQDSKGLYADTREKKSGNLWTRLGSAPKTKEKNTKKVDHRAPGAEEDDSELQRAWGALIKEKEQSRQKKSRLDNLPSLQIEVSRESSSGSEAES
Description: affinity purification on m7GTP-agarose from E. coli lysate, western blot. The following applies: compound immobilised as γ-aminohexyl m7GTP-agarose. Format: biochemical. In general terms: A western blot detects proteins with antibodies after separation by electrophoresis.

In series [3] the target is T3, NCBP3 (aa 1-282); C17orf85 (Homo sapiens, UniProt Q53F19).
T3 construct: N-terminal fragment 1-282 with core RRM; expressed in E. coli BL21-AI, purified; untagged for MST and CD (MBP/His construct cloned)
T3 sequence (Q53F19 1-282): T1 sequence (Q53F19 1-282 W155A/D157A/D158A) with A155W, A157D, A158D
Briefly: affinity purification on m7GTP-agarose, Coomassie SDS-PAGE. The following applies: compound immobilised as γ-aminohexyl m7GTP-agarose. Format: binding.

For series [4], the system named is NCBP3 1-282 (RRM fragment) (Homo sapiens). Briefly: MST. The following applies: 5' m7G cap (CAP0); 3' amino linker; MST: equal volumes of MST-1 (50 mM Tris-HCl pH 7.4, 150 mM NaCl, 10 mM MgCl2, 0.05% Tween-20; RNA 50 nM) and MST-2 (20 mM Tris-HCl pH 7.4, 300 mM NaCl, 5% …).

On to `C[n+]1cn([C@@H]2O[C@H](COP(=O)(O)OP(=O)(O)OP(=O)(O)O)[C@@H](O)[C@H]2O)c2nc(N)[nH]c(=O)c21` [m^7GTP], for which, in series [1], the loss of binding entry is “mutation of the NCBP3 WLDD motif to ALAA resulted in loss of binding”. In series [2], the “affinity purification on m7GTP-agarose from E. coli lysate, western blot” value was “m^7GTP versus GTP-affinity purification and western blotting of recombinant NCBP3 from E. coli lysates”. In series [3], the “affinity purification on m7GTP-agarose, Coomassie SDS-PAGE” value was “recombinant NCBP3 selectively bound m^7GTP but not GTP”.

A word on the Kd: it is the equilibrium constant for the complex coming apart. High values mean a looser complex, low ones a tighter complex. In turn, CAP-RNA oligo (CAP0), DyLight registered a Kd in series [4] of 15.8 µM.
